Data from publication PMC8148066 (Acta Pharmaceutica Sinica. B, 2021).

How the values were obtained:
[1] = test system: gut microbiota; assay: FLZ-to-M1 conversion in colonic contents with CYP51 inhibitors; format: in vitro ADME, mice; conditions: FLZ 2 μg/mL with CYP51 inhibitor 8 and 20 μg/mL, 6 h
[2] = test system: CYP51 in gut microbiota; assay: CYP51 activity in colonic contents; format: biochemical, mice; conditions: inhibitor 8 and 20 μg/mL, 6 h, vs. Control

Concentration of FLZ in the colonic contents [1] | Concentration of M1 in the colonic contents [1] | Ratio of M1/FLZ in gut microbiota [1] | SMILES | Activity of CYP51 in the reaction system of colonic contents [2]
increased | decreased | reduced | CCC(C)n1ncn(-c2ccc(N3CCN(c4ccc(OCC5COC(Cn6cncn6)(c6ccc(Cl)cc6Cl)O5)cc4)CC3)cc2)c1=O (stereo not shown) [itraconazole] | inhibited
increased | decreased | – | C[C@@H](c1ncncc1F)[C@](O)(Cn1cncn1)c1ccc(F)cc1F [voriconazole] | inhibited
